Laboratory results from patent US20030176479A1, “Use of selective EP4 receptor agonists for the treatment of liver failure, loss of patency of the ductus arteriosus, glaucoma or ocular hypertension” (priority 2002, published 2003).

What was measured:
Conditions in all cases: displacement of 3H-prostaglandin E2, 293S membranes, 1 hour at 25° C.
rat EP4 receptor = molecular target: T1, rat EP4 receptor (Rattus norvegicus, UniProt P43114); test: Rat EP4 receptor binding assay (3H-PGE2 displacement, 293S cell membranes)
T1 construct: expressed in transfected cells
T1 sequence (P43114 whole entry): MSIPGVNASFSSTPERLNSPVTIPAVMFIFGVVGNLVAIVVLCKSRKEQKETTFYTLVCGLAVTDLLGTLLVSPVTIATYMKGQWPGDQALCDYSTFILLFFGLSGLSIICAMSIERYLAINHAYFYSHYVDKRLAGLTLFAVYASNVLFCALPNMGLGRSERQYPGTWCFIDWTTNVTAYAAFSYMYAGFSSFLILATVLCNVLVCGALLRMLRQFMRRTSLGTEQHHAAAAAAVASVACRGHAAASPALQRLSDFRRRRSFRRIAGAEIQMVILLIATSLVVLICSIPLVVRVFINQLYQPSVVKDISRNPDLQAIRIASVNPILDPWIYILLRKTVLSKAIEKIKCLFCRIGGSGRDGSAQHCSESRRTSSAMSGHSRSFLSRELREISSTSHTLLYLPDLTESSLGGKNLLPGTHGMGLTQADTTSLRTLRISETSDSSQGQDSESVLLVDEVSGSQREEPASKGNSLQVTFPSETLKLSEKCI
Text: (§1) The compounds of Formula I or II, which are useful in the methods of the present invention, bind to the prostaglandin E2 type 4 receptor (EP4 receptor). The full-length coding sequence for the human EP1 receptor is made in accordance with the procedure in Funk et al., Journal of Biological Chemistry, 1993, 268, 26767-26772. The full-length rat EP2 receptor is made in accordance with the procedure in Nemoto et al., Prostaglandins and other Lipid Mediators, 1997, 54, 713-725. The full-length coding sequence for the human EP3 receptor is made in accordance with the procedure in Regan et al., British Journal of Pharmacology, 1994, 112, 377-385. The full-length coding sequence for the rat EP4 receptor is made in accordance with the procedure in Sando et al., Biochem. Biophys. Res. Comm. 1994, 200,1329-1333. These full-length receptors are used to prepare 293S cells expressing the human EP1, rat EP2, human EP3 or rat EP4 receptors.
(§2) Human EP1, Rat EP2, Human EP3, Rat EP4 Receptor Binding Assay
(§3) The full-length receptors described above are used to prepare 293S cells expressing the EP1, EP2, EP3, and EP4 receptors.
(§4) 293S cells expressing either the human EP1, rat EP2, human EP3 or rat EP4 prostaglandin E2 receptors are generated according to methods known to those skilled in the art. Typically, PCR (polymerase chain reaction) primers corresponding to the 5′ and 3′ ends of the published full length receptor are made according to the well known methods disclosed above and are used in an RT-PCR (reverse transcriptase-polymerase chain reaction) reaction using the total RNA from human kidney (for EP1), rat kidney (for EP2), human lung (for EP3), or rat kidney (EP4) as a source. PCR products are cloned by the TA overhang method into pCR2.1 (Invitrogen Corporation, Carlsbad, Calif.) and identity of the cloned receptor is confirmed by DNA sequencing. For expression of the rat EP2 receptor, the confirmed cDNA is subcloned into the mammalian expression vector PURpCl, a vector generated by subcloning the selectable marker for puromycin resistance into the mammalian expression vector pCl (Promega, Madison, Wis.)
(§5) 293S cells are transfected with either the cloned human EP1 or EP3 receptor in pcDNA3 by electroporation. Stable cell lines expressing either the human EP1 or EP3 receptor are established following selection of transfected cells with G418. 293S cells are transfected with the cloned rat EP2 receptor in PURpCi by lipid mediated transfection. Stable cell lines expressing the rat EP2 receptor are established following selection of transfected cells with puromycin. 293S cells are transfected with the cloned rat EP4 receptor in pcDNA3 by lipid mediated transfection. Stable cell lines expressing the rat EP4 receptor are established following selection of transfected cells with Geneticin® (Invitrogen, Carlsbad, Calif.).
(§6) Clonal cell lines expressing the maximal number of receptors are chosen following a whole cell ^3H-PGE2 binding assay using unlabeled PGE2 as a competitor.
(§7) Membrane Preparation: All operations are performed at 4° C. Transfected cells expressing either prostaglandin E2 type 1, type 2, type 3, or type 4 (EP1, EP2, EP3, or EP4, respectively) receptors are harvested and suspended to 2 million cells per ml in Buffer A [50 mM Tris-HCl (pH 7.4), 10 mM MgCI2, 1 mM EDTA, 1 mM Pefabloc peptide, (Boehringer Mannheim Corp., Indianapolis, Ind.), 10 uM Phosporamidon peptide, (Sigma, St. Louis, Mo.), 1 uM pepstatin A peptide, (Sigma, St. Louis, Mo.), 10 uM elastatinal peptide, (Sigma, St. Louis, Mo.), 100 uM antipain peptide, (Sigma, St. Louis, Mo.)]. The cells are lysed by sonification with a Branson Sonifier (Branson Ultrasonics Corporation, Danbury, Conn.) in 2 fifteen-second bursts. Unlysed cells and debris are removed by centrifugation at 100 ×g for 10 min. Membranes are then harvested by centrifugation at 45,000×g for 30 minutes. […]

human EP3 receptor = molecular target: T2, human EP3 receptor (Homo sapiens, UniProt P43115); test: Human EP3 receptor binding assay (3H-PGE2 displacement, 293S cell membranes)
T2 construct: expressed in transfected cells
T2 sequence (P43115 1-390): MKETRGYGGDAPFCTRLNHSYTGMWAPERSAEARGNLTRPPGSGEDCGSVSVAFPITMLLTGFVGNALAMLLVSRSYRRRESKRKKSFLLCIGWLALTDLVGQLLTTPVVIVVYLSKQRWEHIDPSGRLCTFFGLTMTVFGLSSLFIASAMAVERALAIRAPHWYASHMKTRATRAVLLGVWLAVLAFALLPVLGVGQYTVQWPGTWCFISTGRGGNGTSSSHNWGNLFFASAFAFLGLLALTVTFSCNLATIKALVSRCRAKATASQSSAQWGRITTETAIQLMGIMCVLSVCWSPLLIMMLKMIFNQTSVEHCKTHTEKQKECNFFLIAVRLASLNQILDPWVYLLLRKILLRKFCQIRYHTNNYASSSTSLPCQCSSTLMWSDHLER
Text: as §1, §2, §3, §4, §5, §6, §7

human EP1 receptor = molecular target: T3, human EP1 receptor (Homo sapiens, UniProt P34995); test: Human EP1 receptor binding assay (3H-PGE2 displacement, 293S cell membranes)
T3 construct: expressed in transfected cells
T3 sequence (P34995 1-402): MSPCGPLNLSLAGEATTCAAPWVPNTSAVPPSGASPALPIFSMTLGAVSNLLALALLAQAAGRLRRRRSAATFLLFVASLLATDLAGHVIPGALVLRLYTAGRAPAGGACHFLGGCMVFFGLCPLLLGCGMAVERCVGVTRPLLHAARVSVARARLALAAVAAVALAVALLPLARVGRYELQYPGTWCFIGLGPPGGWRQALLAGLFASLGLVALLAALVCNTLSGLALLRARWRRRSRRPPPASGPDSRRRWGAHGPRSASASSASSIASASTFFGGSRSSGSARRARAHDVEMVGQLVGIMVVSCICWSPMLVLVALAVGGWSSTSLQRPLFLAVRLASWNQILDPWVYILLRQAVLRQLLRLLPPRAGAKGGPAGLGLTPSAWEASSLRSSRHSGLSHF
Text: as §1, §2, §3, §4, §5, §6, §7

rat EP2 receptor = molecular target: T4, rat EP2 receptor (Rattus norvegicus, UniProt Q62928); test: Rat EP2 receptor binding assay (3H-PGE2 displacement, 293S cell membranes)
T4 construct: The full-length rat EP2 receptor is made in accordance with the procedure in Nemoto et al; expressed in transfected cells
T4 sequence (Q62928 whole entry): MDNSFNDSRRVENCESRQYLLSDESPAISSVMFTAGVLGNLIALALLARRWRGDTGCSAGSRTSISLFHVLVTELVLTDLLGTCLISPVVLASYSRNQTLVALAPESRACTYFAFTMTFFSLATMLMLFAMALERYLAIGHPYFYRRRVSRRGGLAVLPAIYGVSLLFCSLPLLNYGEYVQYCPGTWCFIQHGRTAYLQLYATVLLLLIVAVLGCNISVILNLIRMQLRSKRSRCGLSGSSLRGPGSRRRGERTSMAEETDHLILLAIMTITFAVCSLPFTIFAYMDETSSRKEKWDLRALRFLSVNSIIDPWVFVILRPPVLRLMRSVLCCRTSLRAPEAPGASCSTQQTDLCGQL
Text: as §1, §2, §3, §4, §5, §6, §7

SMILES	IC50 (rat EP4 receptor)	IC50 (human EP3 receptor)	IC50 (human EP1 receptor)	IC50 (rat EP2 receptor)
O=C(O)CCCCCCN1C(=O)CC[C@@H]1CC[C@@H](O)Cc1cccc(Cl)c1 [Example 1, 7-{2S-[4-(3-Chloro-phenyl)-3R-hydroxy-butyl]-5-oxo-pyrrolidin-1-yl}-heptanoic acid]	22 nM	> 3.2 µM	> 3.2 µM	> 3.2 µM
O=C(O)CCCCCCN1C(=O)CC[C@@H]1CC[C@@H](O)Cc1cccc(C(F)(F)F)c1 [Example 2, 7-{2S-[3R-hydroxy-4-(3-trifluoromethyl-phenyl)-butyl]-5-oxo-pyrrolidin-1-yl}-heptanoic acid]	21 nM	> 3.2 µM	> 3.2 µM	2.76 µM
O=C1CC[C@H](CCC(O)Cc2cccc(Cl)c2)N1CCCCCCc1nn[nH]n1 (stereo partly drawn) [Example 3, 5S-[4-(3-Chloro-phenyl)-3-hydroxy-butyl]-1-[6-(2H-tetrazol-5-yl)-hexyl]-pyrrolidin-2-one]	38 nM	> 3.2 µM	> 3.2 µM	2.37 µM
O=C1CC[C@H](CC[C@@H](O)Cc2cccc(C(F)(F)F)c2)N1CCCCCCc1nn[nH]n1 [Example 4, 5S-[3R-Hydroxy-4-(3-trifluoromethyl-phenyl)-butyl]-1-[6-(2H-tetrazol-5-yl)-hexyl]-pyrrolidin-2-one]	33 nM	> 3.2 µM	> 3.2 µM	> 3.2 µM

Next, values leading:

IC50 (rat EP4 receptor)	IC50 (human EP3 receptor)	IC50 (human EP1 receptor)	IC50 (rat EP2 receptor)	SMILES
50 nM	> 3.2 µM	> 3.2 µM	3.05 µM	O=C1CCC(CCC(O)Cc2cccc(-c3ccccc3)c2)N1CCCCCCc1nn[nH]n1 (stereo not drawn) [Example 6, 5-(4-Biphenyl-3-yl-3-hydroxy-butyl)-1-[6-(2H-tetrazol-5-yl)-hexyl]-pyrrolidin-2-one]
54 nM	> 3.2 µM	> 3.2 µM	> 3.2 µM	O=C(O)CCCCCCN1C(=O)CCC1CCC(O)Cc1ccccc1 (stereo not drawn) [Example 9, 7-(2-(3-hydroxy-4-phenyl-butyl)-5-oxo-pyrrolidin-1-yl)-heptanoic acid]
